Legend:
Type in all cases: cell-based, human
sirtuin gene hSIRT1 = assay: Expression level of endogenous sirtuin gene hSIRT1 in Caco-2 cells (quantitative PCR, relative to β-actin); conditions: 10 μM, 2 days, qPCR normalised to β-actin, FIG. 2
Method: Caco-2 cells were plated at 3.0×10^5 cells for a 5-mL dish. After 24 hours, each polyphenol was added to be 10 μM. Note that as a negative control, none of polyphenol nor terpenoid was added, and as a positive control, 10 μM resveratrol was added. At 2 days after this treatment, RNA was collected.
The total RNA was prepared using High Pure RNA Isolation Kit (manufactured by Roche, Indianapolis, Ind., USA). For the procedures from the total RNA preparation to the reverse transcription, the reagents and tools used were RNase-free. Cells were prepared in a sub-confluent to confluent condition in a cell culture dish (Greiner bio-one, Monroe, N.C., USA). The medium was completely removed, 200 μL of PBS, and 400 μL of cell lysis solution, which was contained in High Pure RNA Isolation Kit, were added, and the entire dish was well covered by the cell lysis solution. When the viscosity of the cell lysis solution was decreased, the cell lysis solution was collected into a 1.5-mL sample tube. The collected sample was well suspended. A filter tube and a collection tube, which were contained in High Pure RNA Isolation Kit, were assembled, and the sample was pipetted into a buffer reservoir in the upper portion of the filter tube, and was centrifuged at 8,000×g for 15 seconds. The flowthrough liquid into the collection tube was discarded, and the filter tube and the collection tube were again assembled. Then, 90 μL of DNase incubation buffer per sample was pipetted into a sterile reaction tube, and 10 μL of DNase I was added into the tube and mixed. The mixture liquid was pipetted into the buffer reservoir in the upper portion of the filter tube, was added on the glass fiber fleece in the filter tube, and was incubated at room temperature for 15 minutes. Then, 500 μL of wash buffer I, which was contained in High Pure RNA Isolation Kit, was added to the buffer reservoir in the upper portion of the filter tube, and was centrifuged at 8,000×g for 15 seconds. The flowthrough liquid into the collection tube was discarded, and the filter tube and the collection tube were again assembled. Then, 500 μL of wash buffer II was added to the buffer reservoir in the upper portion of the filter tube, and centrifugation was performed at 8,000×g for 15 seconds. The liquid discharged to the collection tube was discarded, and the filter tube and the collection tube were again assembled. Then, 200 μL of wash buffer II was added to the buffer reservoir in the upper portion of the filter tube, and centrifugation was performed at 13,000×g for 2 minutes, after which a remaining wash buffer in the filter tube was removed. The collection tube was discarded, the filter tube was inserted into a sterile reaction tube, and 50 μL of elution buffer was added in the filter tube, and centrifugation was performed at 8,000×g for 1 minute. The eluate obtained by the procedures was taken as an RNA solution. The concentration of RNA in the solution was calculated based on the light absorbance at 260 nm with a NanoDrop 2000/2000c spectrophotometer (Thermo Scientific, Waltham, Mass., USA), for use in subsequent experiments.
Then, 5 pmol of oligo(dT)20 primer was added to 1.0 μg of total RNA extracted from the cells, and sterile water was further added thereto so that the total liquid amount was 13 μL. Heat treatment was performed using a thermal cycler (Peltier Thermal Cycler PTC-200, MJ Research, Watertown, Mass., USA) at 65° C. for 5 minutes, and the resultant was immediately transferred in ice to quench it. During this treatment, the reverse transcriptase reaction program was advanced to the 42° C. stage and was temporarily stopped. A mixture solution obtained by mixing 4 μL of reverse transcriptase reaction buffer solution, 2 μL of 1 mM dNTPs (Amershan Pharmacia Biotech., Buckinghamshire, UK), and 0.5 μL of reverse transcriptase ReverTra Ace (TOYOBO, Osaka, Japan) per sample was added to and gently mixed with the sample on ice after 5 minutes. […]

hSIRT1 promoter [1] = assay: Screening for SIRT1 enhancing polyphenol or terpenoid: hSIRT1 promoter activity (EGFP fluorescence) in Caco-2-hSIRT1p-EGFP cells; conditions: 10 μM, 2 days after addition, relative ratio to control (PBS), FIG. 1
From the text: First, the promoter region (−1593 to −1 bp) of hSIRT1 (human SIRT1) was acquired using the LA-PCR method using, as a template, a human genome DNA extracted from TIG-1 cells (obtained from Institute of Development, Aging and Cancer, Tohoku University), with primers synthesized based on reported information of the hSIRT1 genomic sequence so as to synthesize primers having added AseI and NheI recognition sequences at their respective ends (hSIRT1p-AseI (SEQ ID NO: 1) and hSIRT1p-NheI (SEQ ID NO: 2)). The PCR reaction condition was at 94° C. for 1 minute, followed by at 98° C. for 20 seconds; and at 68° C. for 2 minutes, 34 cycles; and then at 72° C. for 10 minutes for extension reaction. LA-Taq from Takara Shuzo Co., Ltd. was used as the TaqDNApolymerase. The primers were synthesized by Nippon EGT based on our request.
The hSIRT1 promoter fragment obtained by the LA-PCR was subjected to TA cloning using a pGEM-T Easy vector (manufactured by Promega KK). Furthermore, the base sequence thereof was confirmed by sequencing. The hSIRT1 promoter fragment, inserted into the pGEM-T Easy vector, was cut out by digestion with the restriction enzymes AseI and NheI, and the CMV promoter of a pEGFP-C3 (manufactured by Takara Bio Inc.) was removed by digestion with AseI and NheI in a similar manner, and the hSIRT1 promoter fragment was inserted into that removed site, so that phSIRT1p-EGFP was obtained.
Transfection was performed using a LIPOFECT AMINE 2000 REAGENT (manufactured by Life Technologies) according to its protocol. On the day before the transfection, Caco-2 cells (human colonic cancer-derived cells obtained from Riken BioResource Center) were plated at 1.0×10^6 in a 10-mL dish. On the day of the transfection, phSIRT1p-EGFP (10 μg) was diluted in a serum-free OPTI-MEM medium to a volume of 750 μL, after which 15 μL of LIPOFECT AMINE Reagent was diluted in a serum-free OPTI-MEM medium to […], and they were incubated at room temperature for 5 minutes. The transfection using the LIPOFECT AMINE Reagent was performed in the absence of serum, during which the culture medium of the Caco-2 cells plated on the previous day was removed, and was replaced by 5 mL of serum-free OPTI-MEM medium. After 30 minutes of this, 1.5 mL of DNA-LIPOFECT AMINE 2000 mixture was added to each 10-mL dish. After the addition, the dish was gently shaken to mix the DNA-LIPOFECT AMINE and the OPTI-MEM. After the culture for 3 hours, the DNA-LIPOFECT AMINE mixture solution was removed, and the medium was replaced by a serum-containing culture medium. Subsequently, culture was performed under the environment at 5% CO2/95% air and 37° C. for 21 hours, and the culture medium was replaced by a new one.
Since phSIRT1p-EGFP is resistant to the drug G418, the drug G418 was added to the transfected cells to 70 μg/mL to subject them to the drug selection for a week. The culture medium was replaced by a new one every three days, and G418 was added every time at the same concentration. Accordingly, Caco-2-hSIRT1p-EGFP cells were obtained.
Caco-2-hSIRT1p-EGFP cells were plated at 0.6×10^4 cells/well in a 96-well plate. On the next day, 10 μM polyphenol or terpenoid, or control (PBS) was added to each well. At 2 days after the addition, the culture solution was aspirated, after which 100 μL of 4% paraformaldehyde was added to each well, and the plate was allowed to stand at room temperature for 10 minutes. After the plate was allowed to stand for 10 minutes, 4% paraformaldehyde was aspirated, 100 μL of Cellstain (registered trademark)-Hoechst 33342 solution (Dojindo) diluted 1/500 with PBS was added to each well, and the plate was allowed to stand at room temperature in the dark for 15 minutes and the solution was then aspirated. Then, 100 μL of PBS was added to each well, and the fluorescence intensity was measured using an IN Cell Analyzer 1000 (GE Healthcare, Amersham Place, UK). The promoter activity was represented by a relative ratio to the activity of the control.

hSIRT1 promoter [2] = assay: Enhancing the hSIRT1 promoter: EGFP fluorescence intensity in HaCaT-hSIRT1p-EGFP cells by flow cytometry; conditions: 10 μM in DMSO, 24 hours after addition, FIG. 4
Method: HaCaT cells (human epidermis keratinocyte-derived cell lines, provided by Dr. Takumi Miura, National Center for Child Health and Development) were cultured using a Dalbecco's Modified Eagle Medium (DMEM) medium (Nissui Pharmaceutical Co., Ltd, Tokyo) supplemented with 10% FBS, 100,000 U/L penicillin (Meiji, Tokyo), 100 mg/L streptomycin (Meiji), and 2.0 g/L NaHCO3. These cells were subcultured at 37° C. in the presence of 5% CO2.
HaCaT cell lines (HaCaT-hSIRT1p-EGFP cells) into which the vector (phSIRT1-EGFP) described in Reference Example 1 was integrated were prepared as below.
The HaCaT cells were disseminated at 9.0×10^5 in a φ60-mm dish, and were cultured in 10% FBS supplemented DMEM medium. Cells as a control were prepared in a similar manner. After 24 hours, 8 μg of phSIRT1p-EGFP was added to and mixed with 300 μL of DMEM medium, 24 μL of Hilymax (manufactured by Dojindo Laboratories), which is a transfection reagent, was further added and mixed therewith, and the mixture was incubated for 15 minutes at room temperature. Subsequently, the total amount was added to the HaCaT cells. After 3 hours, the medium was replaced by 10% FBS supplemented DMEM medium.
At 24 hours after the gene introduction, the medium was replaced by 10% FBS supplemented DMEM medium containing 750 μg/mL of G418 (Wako Pure Chemical Industries, Ltd.). After visually confirming under a microscope that all the control non-treated HaCaT cells were killed, the subculture was continued using 10% FBS supplemented DMEM containing 150 μg/mL of G418.
It was confirmed with flow cytometry that the phSIRT1p-EGFP vector was reliably transferred inro the cells after the subculture. The above-described cells and the control non-treated HaCaT cells were plated at 7.0×10^5 per a φ60-mm dish, respectively. After 24 hours, the cells were picked up and well suspended in 2 mL of 5% FBS supplemented DMEM medium, and were filtered through a Nylon Mesh (Kyoshin Rikoh Inc., Japan), and the EGFP fluorescence intensity thereof was measured with a Flow Cytometer (EPICS, BeckmanCoulter). The analysis was performed using software FlowJo (Tree Star, Ashland Oreg.), so that the EGFP fluorescence intensity of each cell was represented as a histogram.
HaCaT-hSIRT1p-EGFP cells were plated at 1.7×10^6 cells in a φ60-mm dish (as measured by flow cytometry) or at 2.0×10^4 cells/well in a 96-well plate (as measured by an IN Cell Analyzer 1000). After 24 hours, 10 μM of each polyphenol or terpenoid dissolved in DMSO (Wako Pure Chemical Industries, Ltd.) was added thereto. Note that as a negative control, the same amount of DMSO was added without polyphenol or terpenoid, and as a positive control, 10 μM resveratrol was added. At 24 hours after the addition of the various polyphenols or terpenoids or the controls, the fluorescence intensity was measured by flow cytometry.

| SMILES | relative gene expression level of hSIRT1 (sirtuin gene hSIRT1) | relative hSIRT1 promoter activity (hSIRT1 promoter [1]) | EGFP fluorescence intensity (hSIRT1 promoter activity) (hSIRT1 promoter [2]) |
| --- | --- | --- | --- |
| CC1(C)[C@@H](O[C@H]2O[C@H](C(=O)O)[C@@H](O)[C@H](O)[C@H]2O[C@@H]2O[C@H](C(=O)O)[C@@H](O)[C@H](O)[C@H]2O)CC[C@]2(C)[C@H]3C(=O)C=C4[C@@H]5C[C@@](C)(C(=O)O)CC[C@]5(C)CC[C@@]4(C)[C@]3(C)CC[C@@H]12 [glycyrrhizin] | hSIRT1 transcription enhancing effect was observed |  |  |
| O=C(O[C@@H]1O[C@@H]2COC(=O)c3cc(O)c(O)c(O)c3-c3c(cc(O)c(O)c3O)C(=O)O[C@H]2[C@H](OC(=O)c2cc(O)c(O)c(O)c2)[C@H]1OC(=O)c1cc(O)c(O)c(O)c1)c1cc(O)c(O)c(O)c1 [eugeniin] | hSIRT1 transcription enhancing effect was observed | particularly strong hSIRT1 promoter enhancing activity |  |
| C[C@@]12CCc3occc3[C@H]1CC[C@@]13C[C@@H](CC[C@H]12)[C@@](O)(CO)C3 [cafestol] | hSIRT1 transcription enhancing effect was observed | particularly strong hSIRT1 promoter enhancing activity |  |
| O=C(O[C@H]1[C@@H]2OC(=O)c3cc(O)c(O)c(O)c3-c3c(cc(O)c(O)c3O)C(=O)OC[C@H]2OC(O)[C@@H]1OC(=O)c1cc(O)c(O)c(O)c1)c1cc(O)c(O)c(O)c1 (stereo partly shown) [tellimagrandin I] |  | particularly strong hSIRT1 promoter enhancing activity | hSIRT1 expression effect on skin epidermis cells was seen |
